Columns and labels:
CYP3A4 = target: T1, CYP3A4 (Homo sapiens, UniProt P08684); assay: CYP inhibition evaluation in human liver microsomes, CYP3A4 (midazolam); assay type: in vitro ADME; settings: probe substrate midazolam
T1 construct: from tissue; host or cells: human liver microsomes
Protocol: Incubations were performed in human liver microsomes using probe substrate concentrations similar to their corresponding Km values. Enzyme activity was evaluated in the presence of various concentrations of A-998679. The incubations consisted of the test article at varying concentrations (0–30 μM), probe substrate (concentration ~Km, see Table A2), human liver microsomal protein and 1 mM NADPH in 50 mM phosphate buffer at pH 7.4. Relative quantitation of the metabolites was obtained by LC-MS/MS using an ABSciex (Foster City, CA) API3000 or API4000 Qtrap hybrid linear ion trap mass spectrometer equipped with a TurboIonspray source using either PerkinElmer series 200 pumps or Agilent 1100 series pump with a Leap autosampler. Analytes were separated using a Phenomenex Prodigy ODS(3) 5 μm, 50 × 2.0 mm column at 50°C, eluted and detected under the specific conditions listed in Tables A3, A4, and A5. The analyte to internal standard peak area ratios were determined using Analyst 1.4 software (Applied Biosytems, Carlsbad, CA). The peak area ratios observed in the presence of test article were compared to the vehicle control in order to determine percent activity. To determine the IC50, the data were plotted as Log [dose] μM vs. % inhibition, and analyzed with a sigmoidal dose-response (variable slope) fitting equation. […]

rat Cyp1a1 = target: T2, rat Cyp1a1 (Rattus norvegicus, UniProt P00185); assay: Recombinant rat Cyp phenotype profiling, 1A1; assay type: in vitro ADME; settings: recombinant rat Cyp 1A1 (200 pmol/ml), 60 min
T2 construct: purchased BD Gentest; host or cells: baculovirus infected insect cells
Protocol: (§1) Identification of the drug metabolizing enzymes (DMEs) of A-998679 was studied in cDNA expressed recombinant enzymes prepared from baculovirus infected insect cells over-expressing rat Cyp isoforms (BD Gentest, Woburn, MA) as listed in Table 2. Incubations were conducted in duplicate using Supersomes. The incubation mixture contained 100 pmol/ml of enzymes, except for Cyp1a1 (200 pmol/ml), 0.1 or 0.21 μM of [^3H]A-998679 in 100 mM phosphate buffer (pH 7.4). Reactions were initiated with the addition of NADPH at a final concentration of 1 mM and incubated at 37°C for 60 min. At the end of the incubation period, the incubations were terminated by the addition of acetonitrile/ethanol (50/50, v/v) solution. Insect control samples lacking expressed enzyme were used as negative control. The degree of metabolism of A-998679 was assessed by percent of parent remaining using the radio-HPLC method described below.
(§2) Radiolabeled components from the above assays were profiled following separation by HPLC with on line radioflow detector. The system consisted of an Agilent 1100 Series quaternary pump and autosampler connected to a Packard 500TR flow scintillation detector. The data were processed using the Radiomatic™ Flo-one® software v3.65. The scintillant (Perkin Elmer FLO-SCINT™ III) flow was maintained at 3 ml/min. […]

rat Cyp2b1 = target: T3, rat Cyp2b1 (Rattus norvegicus, UniProt P00176); assay: Recombinant rat Cyp phenotype profiling, 2B1; assay type: in vitro ADME; settings: 60 min
T3 construct: purchased BD Gentest; host or cells: baculovirus infected insect cells
Protocol: as §1, §2

Cyp1a1 = assay: Immunohistochemistry of Cyp1a1 in rat liver; assay type: in vivo; settings: 5 days of treatment; not detectable in control livers
Protocol: All animal experiments were conducted in accordance with the Guiding Principles in the Use of Animals in Toxicology (http://www.toxicology.org/ai/air/air6.asp) and were approved by Abbott's Institutional Animal Care and Use Committee (IACUC). Male Sprague-Dawley rats [Crl:CD®(SD)IGS BR], weighing ~250 g at study initiation were obtained from Charles River Laboratories, Inc. (Wilmington, MA). Rats were housed singly in ventilated, stainless steel, wire-bottom hanging cages and fed non-certified Rodent Chow (Harlan Labs, Madison, WI), and water ad libitum and acclimated for at least 5 days after arrival. Rats were randomly assigned to various treatment groups (3 rats/group) and were dosed once daily by oral gavage with vehicle (0.2% hydroxypropylmethylcellulose at a dose volume of 10 ml/kg) or with 30, 100, or 200 mg/kg of A-998679. All rats were fasted overnight after their last dose, weighed and sacrificed under isoflurane anesthesia. […] Serum clinical chemistry parameters were quantified using an Aeroset Clinical Chemistry Analyzer (Abbott Laboratories, Abbott Park, IL) and included alanine amino transferase (ALT), aspartate amino transferase (AST), gamma glutamyltransferase (GGT), and alkaline phosphatase (ALP) activities. […]

rat Cyp 2A1 = target: T4, rat Cyp 2A1 (Rattus norvegicus, UniProt P11711); assay: Recombinant rat Cyp phenotype profiling, 2A1; assay type: in vitro ADME; settings: 60 min
T4 construct: purchased BD Gentest; host or cells: baculovirus infected insect cells
Protocol: as §1, §2

T3 sequence (P00176 whole entry): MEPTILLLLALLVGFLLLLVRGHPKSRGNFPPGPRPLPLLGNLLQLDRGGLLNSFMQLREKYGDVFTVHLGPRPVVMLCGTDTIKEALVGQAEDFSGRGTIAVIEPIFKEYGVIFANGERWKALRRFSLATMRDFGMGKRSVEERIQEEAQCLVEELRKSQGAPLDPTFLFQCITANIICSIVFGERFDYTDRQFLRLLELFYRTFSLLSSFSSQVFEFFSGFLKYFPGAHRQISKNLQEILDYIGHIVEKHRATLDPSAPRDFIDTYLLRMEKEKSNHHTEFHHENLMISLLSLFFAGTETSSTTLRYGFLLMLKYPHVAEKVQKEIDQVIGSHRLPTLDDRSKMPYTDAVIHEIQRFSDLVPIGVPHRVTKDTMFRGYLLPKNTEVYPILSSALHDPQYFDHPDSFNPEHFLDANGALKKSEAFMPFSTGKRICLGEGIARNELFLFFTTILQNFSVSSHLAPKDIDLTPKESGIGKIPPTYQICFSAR
T2 sequence (P00185 whole entry): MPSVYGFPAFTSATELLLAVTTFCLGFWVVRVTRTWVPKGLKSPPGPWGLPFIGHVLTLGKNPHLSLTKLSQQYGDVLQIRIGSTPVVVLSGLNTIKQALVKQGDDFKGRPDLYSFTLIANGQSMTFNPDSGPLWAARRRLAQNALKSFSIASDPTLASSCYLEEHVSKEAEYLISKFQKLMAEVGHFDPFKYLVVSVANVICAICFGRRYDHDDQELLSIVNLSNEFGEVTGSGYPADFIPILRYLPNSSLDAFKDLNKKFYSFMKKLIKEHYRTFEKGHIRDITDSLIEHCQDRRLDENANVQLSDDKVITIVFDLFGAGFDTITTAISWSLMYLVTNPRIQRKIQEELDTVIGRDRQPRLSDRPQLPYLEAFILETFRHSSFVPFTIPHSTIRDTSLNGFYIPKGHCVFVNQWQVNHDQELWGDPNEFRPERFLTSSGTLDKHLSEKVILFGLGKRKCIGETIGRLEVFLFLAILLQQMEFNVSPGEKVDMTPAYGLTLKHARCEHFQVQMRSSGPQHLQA
T4 sequence (P11711 whole entry): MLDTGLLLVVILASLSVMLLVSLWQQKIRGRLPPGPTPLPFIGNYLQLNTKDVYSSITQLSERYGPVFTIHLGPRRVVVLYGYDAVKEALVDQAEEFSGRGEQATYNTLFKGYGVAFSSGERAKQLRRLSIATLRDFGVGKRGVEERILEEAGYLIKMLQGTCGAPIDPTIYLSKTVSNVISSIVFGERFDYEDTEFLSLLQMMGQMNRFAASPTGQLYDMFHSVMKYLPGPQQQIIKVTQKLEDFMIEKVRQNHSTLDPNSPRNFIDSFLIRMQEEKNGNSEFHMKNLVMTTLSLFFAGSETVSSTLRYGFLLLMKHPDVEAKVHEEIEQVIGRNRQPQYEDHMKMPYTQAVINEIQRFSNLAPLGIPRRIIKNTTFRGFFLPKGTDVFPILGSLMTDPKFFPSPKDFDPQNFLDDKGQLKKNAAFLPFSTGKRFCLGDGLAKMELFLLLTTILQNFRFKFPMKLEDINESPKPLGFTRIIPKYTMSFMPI
T1 sequence (P08684 whole entry): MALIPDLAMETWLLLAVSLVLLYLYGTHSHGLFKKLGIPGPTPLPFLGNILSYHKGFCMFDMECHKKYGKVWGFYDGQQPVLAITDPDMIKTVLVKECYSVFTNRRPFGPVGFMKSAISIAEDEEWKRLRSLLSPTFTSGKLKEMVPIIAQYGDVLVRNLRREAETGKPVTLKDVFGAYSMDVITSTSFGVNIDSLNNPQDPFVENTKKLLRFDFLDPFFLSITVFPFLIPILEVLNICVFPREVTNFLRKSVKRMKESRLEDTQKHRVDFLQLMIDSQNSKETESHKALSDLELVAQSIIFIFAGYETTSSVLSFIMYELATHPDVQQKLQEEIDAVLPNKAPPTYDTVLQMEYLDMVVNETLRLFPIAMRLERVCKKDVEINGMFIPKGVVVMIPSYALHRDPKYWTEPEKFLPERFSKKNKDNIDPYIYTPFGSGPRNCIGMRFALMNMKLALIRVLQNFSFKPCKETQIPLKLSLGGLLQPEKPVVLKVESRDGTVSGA

In the case of `N#Cc1cccc(-c2noc(-c3cccnc3)n2)c1` [A-998679, 3-(5-pyridin-3-yl-1,2,4-oxadiazol-3-yl) benzonitrile], the IC50 (CYP3A4) is reported as greater than 30 µM, the “% parent remaining” value (rat Cyp1a1; 0.10 μM) is reported as 0% and the “% parent remaining” value (rat Cyp1a1; 0.21 μM) is reported as 0%. The “% parent remaining” value (rat Cyp2b1; recombinant rat Cyp 2B1, 0.10 μM) was 87.0%, the “% parent remaining” value (rat Cyp2b1; recombinant rat Cyp 2B1, 0.21 μM) was 34.5% and the “Cyp1a1 immunostaining in rat liver” value (Cyp1a1) was “moderate levels in centrilobular regions”. For the same compound, the “% parent remaining” value (rat Cyp 2A1; recombinant rat Cyp 2A1, 0.10 μM) was 100% and the “% parent remaining” value (rat Cyp 2A1; recombinant rat Cyp 2A1, 0.21 μM) was 100%.
